Test results: ChEMBL document CHEMBL1146576, “Anti-inflammatory lanostane-type triterpene acids from Piptoporus betulinus” (2003)

How the values were obtained:
Assay type in all cases: functional
Mus musculus [1] = test: Antiinflammatory activity in mouse assessed as inhibition of TPA-induced ear edema at 400 nmol
Mus musculus [2] = test: Antiinflammatory activity in mouse assessed as inhibition of TPA-induced ear edema at 430 nmol
Mus musculus [3] = test: Antiinflammatory activity in mouse assessed as inhibition of TPA-induced ear edema at 560 nmol

SMILES	inhibition (INH) (Mus musculus [1]) [%]	also measured
C=C(CC[C@@H](C)[C@H]1CC[C@@]2(C)C3=C(C[C@H](O)[C@]12C)[C@@]1(C)CC[C@@H](OC(=O)C[C@](C)(O)CC(=O)OC)C(C)(C)[C@@H]1CC3)[C@H](C)C(=O)O	86	–
CC1(C)[C@@H](O)CC[C@]2(C)[C@H]3C(=O)C=C4[C@@H]5C[C@@](C)(C(=O)O)CC[C@]5(C)CC[C@@]4(C)[C@]3(C)CC[C@@H]12 [ENOXOLONE]	–	inhibition (INH) (Mus musculus [2]): 24%
C=C(CC[C@@H](C)[C@H]1CC[C@@]2(C)C3=C(C[C@H](O)[C@]12C)[C@@]1(C)CC[C@@H](O)C(C)(C)[C@@H]1CC3)[C@H](C)C(=O)O [POLYPORENIC ACID A]	64	–
C=C(CC[C@@H](C)[C@H]1CC[C@@]2(C)C3=C(C[C@H](O)[C@]12C)[C@@]1(C)CC[C@@H](OC(=O)CC(C)(O)CC(=O)OC)C(C)(C)[C@@H]1CC3)[C@H](C)C(=O)O (some centres not stated)	75	–
C=C(CC[C@@H](C(=O)O)[C@H]1[C@H](O)C[C@@]2(C)C3=CC[C@H]4C(C)(C)C(=O)CC[C@]4(C)C3=CC[C@]12C)C(C)C [POLYPORENIC ACID B]	49	–
COc1ccc2c(c1)c(CC(=O)O)c(C)n2C(=O)c1ccc(Cl)cc1 [INDOMETHACIN]	–	inhibition (INH) (Mus musculus [3]): 16%
C=C(CC[C@@H](C)[C@H]1CC[C@@]2(C)C3=C(C[C@H](O)[C@]12C)[C@@]1(C)CC[C@@H](OC(=O)CC(=O)O)C(C)(C)[C@@H]1CC3)[C@H](C)C(=O)O	65	–
